The values below come from PubChem BioAssay (NCI).

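All cell lines were grown in 96-well plates and treated with compound for 48 hours. GI50: concentration for 50% inhibition of growth. Definition used: TGI = concentration required for complete inhibition of growth.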

What all share (experiment): NCI tumour cell line growth inhibition, 48 h
The subject of experiment [1] is UACC-257 melanoma.
Experiment [2] relates to NCI-H226 lung.
Experiment [3] concerns HCC-2998 colon.
The test system of experiment [4] is U251 CNS.
In experiment [5] the test system is CAKI-1 renal.
Experiment [6] relates to HT29 colon.
For experiment [7], the system named is SW-620 colon.
In experiment [8] the test system is DU-145 prostate.
Experiment [9] relates to SK-OV-3 ovarian.
Experiment [10] deals with SK-MEL-2 melanoma.

As for `COc1cc(/C=C/C(=O)c2c(=O)o[nH][n+]2-c2ccccc2)ccc1[O-]`, the TGI in [1] was 12.4 µM; in experiment [2], greater than 24.1 µM; in [3], 6.28 µM; in experiment [4], 11 µM; in experiment [5], 9.41 µM; in [6] it was 6.64 µM. For the same compound, the TGI was determined as 5.85 µM in experiment [7], 5.72 µM in [8], 16.1 µM in experiment [9] and 6.06 µM in experiment [10].
On to `O=C1CCC2(CCO1)OCCO2`, for which the TGI in [1], in [2], in experiment [3], in experiment [4], in experiment [5] and in experiment [6] was greater than 100 µM in each case. Also, the TGI in [7], in [8], in experiment [9] and in [10] was greater than 100 µM each time.
`C[C@@H](O)C(=O)N1[C@@H]2CC3CC[C@]2(CS1(=O)=O)C3(C)C`: the TGI in experiment [1] was greater than 100 µM; in experiment [2] it was 65.3 µM; in [3], greater than 100 µM; in [4] it was greater than 100 µM; in experiment [5], greater than 100 µM; in [6], greater than 100 µM. For the same compound, the TGI in [7], in experiment [8], in experiment [9] and in [10] was greater than 100 µM in each case.
As to `CCOP(=O)(OCC)C(Nc1cccc(F)c1)c1ccccc1` (centres undefined), the TGI in experiment [1], in [2], in experiment [3], in [4], in [5] and in [6] was greater than 100 µM in each case. The TGI in experiment [8], in [9] and in experiment [10] was greater than 100 µM each time.
`Cc1ccc(C(=O)O)c(CC2Cc3c(C)cccc3C2=O)c1` (centres undefined): the TGI in [1], in experiment [2], in experiment [3], in experiment [4], in [5] and in experiment [6] was greater than 100 µM in each case. The TGI in [7], in experiment [8], in [9] and in experiment [10] was greater than 100 µM in each case.
In the case of `O=[N+]([O-])c1ccc2nc(-c3ccccn3)c(-c3ccccn3)nc2c1`, the TGI in experiment [1], in experiment [2], in experiment [3], in experiment [4], in experiment [5] and in experiment [6] was greater than 100 µM throughout. Moreover, the TGI in experiment [7], in [8], in experiment [9] and in [10] was greater than 100 µM each time.
As for `COc1ccc2c(c1)C(N)=C(c1ccccc1)C2=O`, the TGI in [1], in experiment [2], in experiment [3], in experiment [4], in [5] and in experiment [6] was greater than 100 µM throughout. Also, the TGI in experiment [7], in experiment [8], in experiment [9] and in [10] was greater than 100 µM throughout.
Regarding `CC(C)=CCC[C@@H](C)C1=C(Nc2ccccc2Cl)C(O)=C(C)C(=O)C1=O`, the TGI in [1] came to 27.7 µM; in [2], 25.3 µM; in [3], 31 µM; in experiment [4], 38 µM; in experiment [5], 16 µM; in experiment [6], 13.6 µM. Also, the TGI was greater than 56.4 µM in experiment [7], 29.3 µM in [8], 33.5 µM in experiment [9] and 19.2 µM in experiment [10].
Take `N#CC(C#N)=C1C(C#N)=C(N)NC12OCCO2`: the TGI in experiment [1], in experiment [2], in experiment [3], in experiment [4], in [5] and in [6] was greater than 100 µM in each case. For the same compound, the TGI in [7], in experiment [8], in experiment [9] and in experiment [10] was greater than 100 µM throughout.
`Cc1cc(C)c(P2C(=C(O[Si](C(C)C)(C(C)C)C(C)C)C(C)(C)C)C2(c2ccccc2)c2ccccc2)c(C)c1` (centres undefined): the TGI in experiment [1], in experiment [2], in [3], in experiment [4], in [5] and in experiment [6] was greater than 100 µM in each case. Further, the TGI in experiment [7], in experiment [8], in [9] and in [10] was greater than 100 µM each time.
With `O=[N+]([O-])c1c(Br)cc(Br)c2c1Nc1c(ccc(Cl)c1Cl)S2`, the TGI in [1] stood at 21.2 µM; in experiment [2] it was 31.6 µM; in [3], 28.8 µM; in [4], 35.1 µM; in experiment [5], 33.6 µM; in [6] it was 26 µM. Further, the TGI in experiment [7] was determined as 25.7 µM; in [8], 27.3 µM; in experiment [9], 43 µM; in experiment [10], 39.2 µM.
Turning to `CCOC(=O)C(=[N+]=[N-])C(=O)Nc1nn2nnnc2c2ccccc12`, the TGI in experiment [1], in experiment [2], in experiment [3], in experiment [4], in [5] and in experiment [6] was greater than 100 µM each time. Further, the TGI in experiment [7], in [8], in experiment [9] and in [10] was greater than 100 µM each time.
As for `N=c1oc2ccc3ccccc3c2cc1C(N)=O`, the TGI in experiment [1] was greater than 100 µM; in [2] it was greater than 100 µM; in experiment [3] it was 90.6 µM; in [4], greater than 100 µM; in [5], greater than 100 µM; in experiment [6], greater than 100 µM. In addition, the TGI in experiment [7] is greater than 100 µM; in experiment [8] it was greater than 100 µM; in experiment [9] it was greater than 100 µM; in experiment [10], 49.4 µM.
For the compound `O=C(CCN1CCCC1)Nc1ccc2sc3ccccc3c(=O)c2n1`, the TGI amounted to 17 µM in experiment [1]; 29.2 µM in [2]; 17 µM in [3]; 18.5 µM in [4]; 16.7 µM in experiment [5]; 6.37 µM in experiment [6]. In addition, the TGI was determined as 19.9 µM in [7], 25.7 µM in [8], 14.3 µM in experiment [9] and 18 µM in [10].
Turning to `CCOC(=O)C(NC(=O)N(C1=NCC(C)S1)C1CCCCC1)(OC)C(F)(F)F` (centres undefined), the TGI in experiment [1] is greater than 100 µM; in experiment [2], 47.5 µM; in [3], greater than 100 µM; in [4], 53.6 µM; in experiment [5] it was greater than 100 µM; in experiment [6], 53 µM. Moreover, the TGI in experiment [7], in experiment [8], in experiment [9] and in experiment [10] was greater than 100 µM in each case.
As for `C/C(=N\NC(=S)N1CCCCC1)c1cccc(C)n1`, the TGI is 12.1 µM in experiment [1]; 0.4 µM in [2]; 21.8 µM in experiment [3]; 11.5 µM in [4]; 12.4 µM in experiment [5]; 16.2 µM in experiment [6]. The values for the TGI in [7], in experiment [8] and in experiment [10] were 18.3 µM, 2.22 µM and 22.4 µM, respectively.
Consider `CC[N+]1(C)CCC(O)(/C=C/c2ccc(OC)cc2)C(C(=O)/C=C/c2ccc(OC)cc2)C1` (centres undefined), for which the TGI is 42.4 µM in [1]; greater than 100 µM in experiment [2]; 46.4 µM in [3]; 33.9 µM in [4]; 3.93 µM in experiment [5]; greater than 74.5 µM in [6]. Moreover, the TGI in [7] came to 7.42 µM; in [8], 31.2 µM; in [9] it was 36.7 µM; in [10], 39.7 µM.
With `COc1cc2nc(-c3ccc4ccccc4c3)[nH]c(=O)c2cc1OC`, the TGI in experiment [1], in [2], in experiment [3], in experiment [5], in experiment [6] and in experiment [8] was greater than 100 µM each time. In addition, the TGI in experiment [9] and in [10] was greater than 100 µM throughout.
Turning to `CCc1c(Cc2cccc3ccccc23)n2c(nc1=O)SCC2OCCO` (centres undefined), the TGI in experiment [1], in [2], in experiment [3], in [4], in experiment [5] and in experiment [6] was greater than 100 µM in each case. The TGI in experiment [7], in experiment [8] and in experiment [10] was greater than 100 µM each time.
Consider `CCCCc1cc2c(C)cc(=O)oc2c(O)c1O`, for which the TGI was 66.1 µM in [1]; 67.9 µM in [2]; 15.7 µM in experiment [3]; 56.1 µM in [4]; 53.3 µM in [5]; 77 µM in experiment [6]. For the same compound, the TGI in experiment [7] is 62.2 µM; in experiment [8], greater than 100 µM; in experiment [10] it was greater than 100 µM.
Take `CC(=O)O[C@@H]1C[C@@]23C[C@@]24CC[C@H](OC2OCC(O)C(O)C2O)C(C)(C)[C@@H]4CC=C3[C@]2(C)C[C@@H]3OC4(C[C@@H](C)[C@@H]3[C@@]12C)OC(O)[C@@]1(C)O[C@@H]41` (some centres undefined): the TGI in [1] was 67 µM; in [2], greater than 100 µM; in experiment [3], 40.5 µM; in [4], greater than 100 µM; in experiment [5], greater than 100 µM; in experiment [6], greater than 100 µM. Also, the TGI was greater than 100 µM in experiment [7], greater than 100 µM in experiment [8], 62.8 µM in experiment [9] and 40.7 µM in experiment [10].
Regarding `Cc1cc(/C=C\c2ccc3ccccc3[n+]2C)c(O)c2ncccc12`, the GI50 in [1] was 1.54 µM; in experiment [2], 1.24 µM; in [3], 0.112 µM; in experiment [4], 0.537 µM; in experiment [5] it was 0.816 µM; in [6] it was 0.218 µM. For the same compound, the GI50 in experiment [7] is 0.196 µM; in experiment [8], 0.902 µM; in experiment [9], 1.68 µM; in experiment [10] it was 3.03 µM. Besides, the TGI is 6.59 µM in experiment [1]; 3.17 µM in [2]; 0.593 µM in [3]; greater than 100 µM in [4]; 3.51 µM in experiment [5]; 21.7 µM in [6]. In addition, the TGI in experiment [7] is 2.15 µM; in [8], 4.22 µM; in experiment [9], 4.84 µM; in [10], greater than 100 µM.
With `CN(C)c1nc(N(C)C)nc(N(C)C23CC4CC(CC(C4)C2)C3)n1`, the TGI in experiment [1] was greater than 100 µM; in experiment [2], greater than 100 µM; in experiment [3] it was 85.3 µM; in experiment [4], greater than 100 µM; in [5], greater than 100 µM; in [7], greater than 100 µM. For the same compound, the figures for the TGI in experiment [8], in [9] and in experiment [10] were greater than 100 µM, greater than 100 µM and 55.5 µM, respectively.
For the compound `COc1cc2c(cc1OCCCC(=O)Nc1cc(C(=O)Nc3cc(C(=O)Nc4cc(C(=O)NCCCN(C)C)n(C)n4)n(C)n3)n(C)n1)N=CC1CCCN1C2=O` (centres undefined), the TGI in [1] is 40.9 µM; in experiment [2], 48.1 µM; in experiment [3], 93.5 µM; in experiment [4], greater than 100 µM; in experiment [5], 61.5 µM; in experiment [6] it was 51.3 µM. For the same compound, the TGI in experiment [7] is greater than 100 µM; in experiment [8], greater than 100 µM; in experiment [9], greater than 100 µM; in experiment [10], 48 µM.
`c1ccc(CCNCc2ccco2)nc1`: the TGI in experiment [1], in experiment [2], in experiment [3], in experiment [4], in [5] and in experiment [6] was greater than 100 µM throughout. Moreover, the TGI in experiment [7], in experiment [8], in [9] and in experiment [10] was greater than 100 µM throughout.
With `Cc1ccncc1.F[B-](F)(F)F.[Pt+2].c1ccc(-c2cccc(-c3ccccn3)n2)nc1`, the TGI in experiment [1] is 44.5 µM; in experiment [2], 5.36 µM; in [3], 59.5 µM; in experiment [4], greater than 100 µM; in experiment [5], greater than 62.1 µM; in experiment [6], 27.9 µM. In addition, the TGI in experiment [7] is 42.6 µM; in experiment [8], greater than 100 µM; in experiment [9] it was 17.6 µM; in [10], greater than 100 µM. Further, the GI50 in experiment [2] is 0.618 µM.
